Data reported in paper PMC5354670, “Blockade of the malignant phenotype by β-subunit selective noncovalent inhibition of immuno- and constitutive proteasomes” (Oncotarget, 2017).
Blank lines part the entries; values can stand above or below the compound they belong to.

Columns and labels:
[1] = target: human 20S immunoproteasome iCP, T-L activity (β2) (Homo sapiens, UniProt P40306); test: Inhibition of T-L activity of human iCP (substrate Boc-LRR-AMC); conditions: for fold induction at 50 µM: pH 8, read-out: x (activation factor) at 50 μM T-L, iCP
Protocol: We decided to explore further their properties by testing their potential to inhibit human iCP versus cCP. They were assayed for in vitro inhibition of purified human cCP and iCP by measuring the hydrolysis of the β5 (ChT-L) substrate Suc-LLVY-AMC, β1 (PA) substrate Z-LLE-βNA, and β2 (T-L) substrate Boc-LRR-AMC in the presence of various concentrations of the tested molecules.
(§7) The experimental data are adjusted to equation 1 (c) or equation 2 (a, a’, b, b’, c’).
Purified human constitutive 20S proteasome cCP and human 20S immunoproteasome iCP from erythrocyte were obtained from Boston Biochem (Cambridge, USA). All fluorogenic substrates (Suc-LLVY-AMC, Boc-LRR-AMC, and Z-LLE-βNA) were obtained from Bachem (Weil am Rhein, Germany). Other reagents and solvents were purchased from commercial sources. Fluorescence was measured using a BMG Fluostar microplate reader (black 96-well microplates).
(§8) Substrates and compounds were previously dissolved in DMSO. The buffers were (pH 8.0): 20 mM Tris, 10% (v/v) glycerol, 0.01% (w/v) SDS, and 2% (v/v) DMSO (ChT-L and PA activities); 20 mM Tris, 10% (v/v) glycerol, 0.01% (w/v). The final iPR and cPR concentrations were 0.3 nM using 20 μM Suc-LLVY-AMC (ChT-L), 50 μM Boc-LRR-AMC (T-L) and 100 μM Z-LLE-βNA (PA). […] The enzyme and the inhibitors were incubated for 15 min before the measurement of the enzyme activity. Initial rates determined in control experiments (V0) were considered to be 100 % of the peptidase activity; initial rates (Vi) that were above 100 % in the presence of a tested compound were considered to be activations (expressed as activation factor), while initial rates below 100 % were considered to be inhibitions. […] The values of IC50 were calculated by fitting the experimental data to the equation 1 or equation 2, where nH is the Hill number.

[2] = target: human constitutive 20S proteasome cCP, PA activity (β1) (Homo sapiens, UniProt P28072); test: Inhibition of PA activity of human cCP (substrate Z-LLE-βNA); conditions: for inhibition at 50 µM: pH 8, read-out: % inhibition at 50 μM PA, cCP
Protocol: (§9) They were assayed for in vitro inhibition of purified human cCP and iCP by measuring the hydrolysis of the β5 (ChT-L) substrate Suc-LLVY-AMC, β1 (PA) substrate Z-LLE-βNA, and β2 (T-L) substrate Boc-LRR-AMC in the presence of various concentrations of the tested molecules.
as §7
(§10) Purified human constitutive 20S proteasome cCP and human 20S immunoproteasome iCP from erythrocyte were obtained from Boston Biochem (Cambridge, USA). All fluorogenic substrates (Suc-LLVY-AMC, Boc-LRR-AMC, and Z-LLE-βNA) were obtained from Bachem (Weil am Rhein, Germany). […] Fluorescence was measured using a BMG Fluostar microplate reader (black 96-well microplates).
as §8

[3] = target: human 20S immunoproteasome iCP, PA activity (β1) (Homo sapiens, UniProt P28065); test: Inhibition of PA activity of human iCP (substrate Z-LLE-βNA); conditions: for ratio cCP/iCP, PA activity: IC50 cCP / IC50 iCP; for inhibition at 50 µM: pH 8, read-out: % inhibition at 50 μM PA, iCP
Protocol: as §9, §7, §10, §8

[4] = target: human 20S immunoproteasome iCP, ChT-L activity (β5) (Homo sapiens, UniProt P28062); test: Inhibition of ChT-L activity of human iCP (substrate Suc-LLVY-AMC); conditions: for ratio cCP/iCP, ChT-L activity: IC50 cCP / IC50 iCP; for inhibition at 50 µM: pH 8, read-out: % inhibition at 50 μM ChT-L, iCP
Protocol: as §9, §7, §10, §8

[5] = target: human constitutive 20S proteasome cCP, ChT-L activity (β5) (Homo sapiens, UniProt P28074); test: Inhibition of ChT-L activity of human cCP (substrate Suc-LLVY-AMC); conditions: for factor by which ChT-L activity of cCP is more efficiently inhibited than PA: PA vs ChT-L; for inhibition at 50 µM: pH 8, read-out: % inhibition at 50 μM ChT-L, cCP
Protocol: as §9, §7, §10, §8

[6] = target: human constitutive 20S proteasome cCP, T-L activity (β2) (Homo sapiens, UniProt Q99436); test: Inhibition of T-L activity of human cCP (substrate Boc-LRR-AMC); conditions: for inhibition at 50 µM: pH 8, read-out: % inhibition at 50 μM T-L, cCP; for fold induction at 50 µM: pH 8, read-out: x (activation factor) at 50 μM T-L, cCP
Protocol: as §9, §7, §10, §8

[7] = system: MDA-MB-231 cells (breast cancer); test: Cell invasion assay, microchemotaxis chamber pre-coated with collagen IV, MDA-MB-231; format: cell-based; conditions: 10 μM, 24 h
Protocol: (§1) We first analyzed the cytotoxic effects of B1f and B3 treatment on colon (CT-26) and breast cancer cells (MDA-MB-231 cells) using the MTT cell viability assay. B1f and B3 inhibited the viability of these cells in a dose-dependent manner after 48 h treatment. Higher doses of B1f and B3 lead to 100% cytotoxicity (Figure 4A). […] We next assessed the effect of B1f and B3 on the proliferation of these cells during 24h. […] Similarly, to evaluate whether these inhibitors can affect their invasion, tumor cells were incubated for 24 h in a microchemotaxis chamber pre-coated with collagen IV (Figure 4C) in the presence of the compounds B1f or B3.
(§2) Figure 4 Effect of compounds B1f and B3 on tumor cell proliferation and invasion A. CT-26 and MDA-MB 231 cells were treated with various concentrations of indicated compounds for 48h and cells viability was measured by MTT assay. […] Cell proliferation was assessed using Cell Titer96 non-radioactive cell proliferation assay. […]
(§3) Cell invasion were determined using 24-well microchemotaxis chambers precoated with 7.5 μg collagen type IV (Becton Dickinson Labware), as previously described. […] Cell invasion were quantified by determination of the number of cells that migrated directly through the membrane toward the medium containing 10% serum that was used as a chemoattractant. […]

[8] = system: MDA-MB-231 cells (breast cancer); test: Cell Titer96 non-radioactive cell proliferation assay, MDA-MB-231; format: cell-based; conditions: 10 μM, 24 h, vs control cells
Protocol: as §1, §2
(§4) For the viability assay, CT-26 (colon cancer) and MDA-MB231 (breast cancer) cells were plated in triplicate on 96 wells plate (5.10^3/well). After treatment with indicated drugs, cells were incubated for 48 hours at 37°C and incubated with solution of 5 mg/ml of 3-(4,5-dimethylthiazol-2-yl)-2,5-diphenyltetrazolium bromide (MTT) tetrazolium substrate (Sigma) for 30 minutes at 37°C prior analysis on a microplate reader at 570. […]

[9] = system: CT-26 cells (colon cancer); test: Cell Titer96 non-radioactive cell proliferation assay, CT-26; format: cell-based; conditions: 10 μM, 24 h, vs control cells
Protocol: as §1, §2, §4

[10] = system: CT-26 cells (colon cancer); test: MTT cell viability assay, CT-26; format: cell-based; conditions: for cytotoxicity at higher doses: CT-26 cells, 48 h; for CC50: Mus musculus, CT26 cells, 48 h treatment, MTT, read-out: LC50 (the source's name)
Protocol: as §1
(§5) Figure 4 Effect of compounds B1f and B3 on tumor cell proliferation and invasion A. CT-26 and MDA-MB 231 cells were treated with various concentrations of indicated compounds for 48h and cells viability was measured by MTT assay. B. Tumor cells were serum deprived overnight and then treated for 24 h with control media (None) or media containing compound B3 or B1f. Cell proliferation was assessed using Cell Titer96 non-radioactive cell proliferation assay. Results are shown as means ± S.E. of three experiments performed in triplicate. *P < 0.05. **P < 0.001. *** P < 0.0001. C. Indicated tumor cells were incubated in a microchemotaxis chamber pre-coated with collagen IV for cell invasion assay as described in the Materials and Methods section. The results are represented as the percentage of invading cells. Data are representative of 3 experiments and shown as mean ± S.E. (n=3 per group). **P < 0.001. *** P < 0.0001.
(§6) For the viability assay, CT-26 (colon cancer) and MDA-MB231 (breast cancer) cells were plated in triplicate on 96 wells plate (5.10^3/well). After treatment with indicated drugs, cells were incubated for 48 hours at 37°C and incubated with solution of 5 mg/ml of 3-(4,5-dimethylthiazol-2-yl)-2,5-diphenyltetrazolium bromide (MTT) tetrazolium substrate (Sigma) for 30 minutes at 37°C prior analysis on a microplate reader at 570. The LC50 value was defined as the drug concentration causing 50% cell death (LD = lethal dose) compared to growth of the untreated control cells. For cell proliferation, cells were plated in triplicate on 96 wells plate (5.10^3/well) under serum free conditions for 24 h. The starved cells were then incubated for 24h with fresh media containing the two selected compounds B1f and B3 that inhibit both ChT-L and PA activities of iCP and cCP. […] Proliferation level in cells was evaluated, as reported previously using the Cell Titer96 non-radioactive cell proliferation assay kit (Promega) according to manufacturer’s protocol

[11] = system: CT-26 cells (colon cancer); test: Cell invasion assay, microchemotaxis chamber pre-coated with collagen IV, CT-26; format: cell-based; conditions: 10 μM, 24 h
Protocol: as §1, §2, §3

[12] = system: MDA-MB-231 cells (breast cancer); test: MTT cell viability assay, MDA-MB-231; format: cell-based; conditions: for cytotoxicity at higher doses: 48 h; for CC50: Homo sapiens, 48 h treatment, MTT, read-out: LC50 (the source's name)
Protocol: as §1, §5, §6

SMILES: Cc1ccc(S(=O)(=O)N2CCN(c3ccc([N+](=O)[O-])c(SCc4ccco4)c3)CC2)cc1 [Compound B1e]
fold induction at 50 µM [1]: 3
IC50 [2]: 4.2 µM
IC50 [3]: 3.3 ± 0.3 µM
ratio cCP/iCP, PA activity [3]: 1.3
IC50 [4]: 5.5 ± 0.3 µM
ratio cCP/iCP, ChT-L activity [4]: 0.55
IC50 [5]: 2.5 µM
factor by which ChT-L activity of cCP is more efficiently inhibited than PA [5]: 1.7
inhibition at 50 µM [6]: < 25%

SMILES: O=[N+]([O-])c1ccc(N2CCN(S(=O)(=O)c3ccc(Cl)cc3)CC2)cc1SCc1ccco1 [Compound B1f]
fold induction at 50 µM [1]: 3
effect on invasion [7]: clearly decreased their ability to invade
IC50 [2]: 7.4 µM
effect on proliferation [8]: significant reduction in their proliferation
effect on proliferation [9]: significant reduction in their proliferation
IC50 [3]: 3.7 ± 0.2 µM
ratio cCP/iCP, PA activity [3]: 2
IC50 [4]: 5.8 ± 0.2 µM
ratio cCP/iCP, ChT-L activity [4]: 0.45
IC50 [5]: 3.2 µM
factor by which ChT-L activity of cCP is more efficiently inhibited than PA [5]: 2.3
cytotoxicity at higher doses [10]: 100%
CC50 [10]: 24.4 ± 8.6 µM
effect on invasion [11]: clearly decreased their ability to invade
inhibition at 50 µM [6]: < 25%
cytotoxicity at higher doses [12]: 100%
CC50 [12]: 45.8 ± 5.2 µM

SMILES: CC(=O)Nc1ccc(S(=O)(=O)N2CCN(c3ccc([N+](=O)[O-])c(NCCN4CCOCC4)c3)CC2)cc1 [Compound B1h]
inhibition at 50 µM [2]: 45%
inhibition at 50 µM [6]: < 25%

SMILES: O=[N+]([O-])c1ccc(N2CCN(S(=O)(=O)c3ccc4ccccc4c3)CC2)cc1SCCN1CCOCC1 [Compound B2a]
IC50 [2]: 31.2 ± 1 µM
inhibition at 50 µM [6]: < 25%

SMILES: O=C(COc1ccc2ccccc2c1)N1CCN(S(=O)(=O)c2ccc([N+](=O)[O-])cc2)CC1 [Compound B3]
inhibition at 50 µM ([1]; pH 8, read-out: % inhibition at 50 μM T-L, iCP): < 25%
effect on invasion [7]: clearly decreased their ability to invade
IC50 [2]: 8.1 µM
effect on proliferation [8]: significant reduction in their proliferation
effect on proliferation [9]: significant reduction in their proliferation
IC50 [3]: 7.1 ± 0.2 µM
IC50 [4]: 6.7 ± 0.2 µM
IC50 [5]: 6.5 µM
cytotoxicity at higher doses [10]: 100%
CC50 [10]: 26.4 ± 1.7 µM
effect on invasion [11]: clearly decreased their ability to invade
inhibition at 50 µM [6]: < 25%
cytotoxicity at higher doses [12]: 100%
CC50 [12]: 15.4 ± 4.7 µM

SMILES: O=[N+]([O-])c1ccc(N2CCN(S(=O)(=O)Cc3ccccc3)CC2)cc1NCCN1CCOCC1 [Compound B4]
inhibition at 50 µM [2]: < 25%
inhibition at 50 µM [5]: < 25%
inhibition at 50 µM [6]: < 25%

SMILES: COc1ccc(S(=O)(=O)N2CCN(c3ccc([N+](=O)[O-])c(NCC(C)(C)C)c3)CC2)cc1OC [Compound B1i]
inhibition at 50 µM [2]: < 25%
inhibition at 50 µM [5]: < 25%
inhibition at 50 µM [6]: < 25%

Next, values leading:

IC50 [1]: 3.3 ± 0.4 µM
cCP/iCP ratio for the IC50 values, T-L activity [1]: 2.4
inhibition at 50 µM [2]: < 25%
inhibition at 50 µM [3]: < 25%
inhibition at 50 µM [4]: < 25%
inhibition at 50 µM [5]: < 25%
IC50 [6]: 8.1 µM
SMILES: CC(C)(C)c1ccc(S(=O)(=O)N2CCN(c3ccc(Cl)cc3[N+](=O)[O-])CC2)cc1 [Compound B1c]

cCP/iCP ratio for the IC50 values, T-L activity [1]: 1.4
inhibition at 50 µM [2]: < 25%
inhibition at 50 µM [3]: 25%
inhibition at 50 µM [4]: < 25%
inhibition at 50 µM [5]: < 25%
IC50 [6]: 10.3 µM
SMILES: CC(C)Cc1ccc(S(=O)(=O)N2CCN(c3ccc([N+](=O)[O-])cc3)CC2)cc1 [Compound B1a]

IC50 [1]: 2.6 ± 0.4 µM
cCP/iCP ratio for the IC50 values, T-L activity [1]: 4.6
inhibition at 50 µM [2]: < 25%
inhibition at 50 µM [3]: < 25%
inhibition at 50 µM [4]: < 25%
inhibition at 50 µM [5]: < 25%
IC50 [6]: 12 µM
SMILES: Cc1ccccc1N1CCN(S(=O)(=O)c2ccc(C(C)(C)C)cc2)CC1 [Compound B1b]

inhibition at 50 µM [2]: 46%
inhibition at 50 µM [5]: < 25%
fold induction at 50 µM [6]: 4.7
SMILES: O=[N+]([O-])c1ccc(N2CCN(S(=O)(=O)c3ccc(Cl)cc3)CC2)cc1Sc1ccccn1 [Compound B1d]

IC50 [2]: 13.9 ± 1.4 µM
IC50 [5]: 24.6 ± 3.5 µM
inhibition at 50 µM [6]: < 25%
SMILES: CC(C)(C)c1ccc(S(=O)(=O)N2CCN(c3ccc([N+](=O)[O-])c(NCc4ccccn4)c3)CC2)cc1 [Compound B1g]

inhibition at 50 µM [2]: 50%
inhibition at 50 µM [5]: 58.9%
fold induction at 50 µM [6]: 4.5
SMILES: O=[N+]([O-])c1ccc(N2CCN(S(=O)(=O)c3ccc4ccccc4c3)CC2)cc1 [Compound B2b]
